# “And” between values parts separate entries of the source, which are not always exact repeats. Equal entries are not always repeated. Where two headings read alike, the source gives them in different places.
# Tests used:
# Multiple dose PK/TK, rat = format: in vivo
# Excerpt: (§1) This section provides a summary of the pharmacokinetic and metabolism properties of AZD0328 derived from in vivo studies. […] The derived PK/TK parameters from these studies are presented in Table 4 for single dose studies (DMR4, 0619LR, 20030191PCR, DMO16, DMB10, DMW12, 50190, 0190DD and 03.330/1), and are presented in Table 5 multiple dose PK/TK studies (DMR4, 0612AR, DMB15, 50190, 0190DD and 0295AD).
# [1] = Multiple dose PK/TK, rabbit; format: in vivo; conditions: day 18; for AUC / Cmax / Tmax: female, New Zealand White, in vivo, sc
# Excerpt: as §1
# Pgp transporter = target: T1, Pgp transporter (Homo sapiens, UniProt P08183); experiment: Digoxin transport, cell-based assay; format: in vitro ADME
# T1 construct: host or cells: unnamed cells
# Excerpt: The 50% bioavailability of AZD0328 in human was conservatively selected based on the observations from rat, dog and monkey.
# [2] = Single dose PK/TK, rabbit; conditions: New Zealand White, in vivo
# Excerpt: as §1
# [3] = male, rat, in vivo, po, 2.16 mg/kg, rat 4M, 0612AR, 2.16 mg/kg (10 μmol/kg), day 1
# [4] = male, rat, in vivo, po, 15.1 mg/kg, rat 4M, 0612AR, 15.1 mg/kg (70 μmol/kg), day 1
# [5] = male, rat, in vivo, po, 15.1 mg/kg, rat 4M, 0612AR, 15.1 mg/kg (70 μmol/kg), day 30
# [6] = male, rat, in vivo, po, 64.9 mg/kg, rat 4M, 0612AR, 64.9 mg/kg (300 μmol/kg), day 1
# [7] = male, rat, in vivo, po, 64.9 mg/kg, rat 4M, 0612AR, 64.9 mg/kg (300 μmol/kg), day 30
# [8] = rabbit 2F, DMB15, subcutaneous 1.15 mg/kg (3 μmol/kg)
# [9] = rabbit 3F, DMB15, subcutaneous 0.115 mg/kg (0.3 μmol/kg)
# [10] = rabbit 3F, DMB15, subcutaneous 0.269 mg/kg (0.7 μmol/kg)
# [11] = rabbit 3F, DMB15, subcutaneous 0.384 mg/kg (1 μmol/kg)
# [12] = rabbit 3F, DMB15, subcutaneous 3.84 mg/kg (10 μmol/kg)
# [13] = female, sc, rabbit 3F, DMB10, single subcutaneous 2.16 mg/kg (10 μmol/kg)
# [14] = female, sc, rabbit 3F, DMB10, single subcutaneous 6.49 mg/kg (30 μmol/kg)
# T1 sequence (P08183 whole entry): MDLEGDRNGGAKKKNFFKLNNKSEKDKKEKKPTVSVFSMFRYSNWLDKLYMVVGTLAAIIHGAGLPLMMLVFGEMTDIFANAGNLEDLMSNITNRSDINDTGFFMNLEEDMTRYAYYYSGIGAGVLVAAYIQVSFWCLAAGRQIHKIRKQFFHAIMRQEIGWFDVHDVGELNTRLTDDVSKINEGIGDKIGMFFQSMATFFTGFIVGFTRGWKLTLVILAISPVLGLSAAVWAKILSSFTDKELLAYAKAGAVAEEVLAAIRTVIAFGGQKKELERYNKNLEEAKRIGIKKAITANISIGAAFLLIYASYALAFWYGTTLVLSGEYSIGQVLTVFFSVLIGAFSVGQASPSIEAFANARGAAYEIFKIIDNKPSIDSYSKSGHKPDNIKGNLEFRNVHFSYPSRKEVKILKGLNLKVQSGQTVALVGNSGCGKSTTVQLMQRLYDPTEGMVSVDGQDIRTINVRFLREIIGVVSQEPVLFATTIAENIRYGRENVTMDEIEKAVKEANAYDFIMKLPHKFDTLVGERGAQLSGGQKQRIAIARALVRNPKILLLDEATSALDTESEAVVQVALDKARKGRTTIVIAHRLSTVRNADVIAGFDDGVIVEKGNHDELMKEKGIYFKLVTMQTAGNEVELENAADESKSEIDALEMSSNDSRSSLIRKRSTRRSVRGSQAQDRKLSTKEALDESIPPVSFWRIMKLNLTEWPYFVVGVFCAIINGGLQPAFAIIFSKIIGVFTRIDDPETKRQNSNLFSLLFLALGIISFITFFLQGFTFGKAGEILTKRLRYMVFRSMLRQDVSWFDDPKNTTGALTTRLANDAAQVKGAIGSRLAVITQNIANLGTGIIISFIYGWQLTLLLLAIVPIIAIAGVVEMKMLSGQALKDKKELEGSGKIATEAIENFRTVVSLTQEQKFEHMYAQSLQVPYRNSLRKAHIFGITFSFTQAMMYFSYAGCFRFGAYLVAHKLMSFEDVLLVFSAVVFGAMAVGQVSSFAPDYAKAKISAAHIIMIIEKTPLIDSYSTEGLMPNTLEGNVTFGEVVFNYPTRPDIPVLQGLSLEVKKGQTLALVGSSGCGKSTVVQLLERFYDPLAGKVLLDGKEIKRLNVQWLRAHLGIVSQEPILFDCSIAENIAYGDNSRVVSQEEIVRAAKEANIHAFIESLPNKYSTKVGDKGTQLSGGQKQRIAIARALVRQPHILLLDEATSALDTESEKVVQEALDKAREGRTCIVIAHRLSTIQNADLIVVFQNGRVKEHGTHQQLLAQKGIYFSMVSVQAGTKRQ
compound,measurement,setting,value
"c1cnc2c(c1)C[C@@]1(CN3CCC1CC3)O2 [AZD0328, (R)-Spiro[1-azabicyclo[2.2.2]octane-3,2′(3′H)-furo[2,3-b]pyridine]]",Tmax at 30 day,"Multiple dose PK/TK, rat; male, rat, in vivo, po, 2.16 mg/kg, rat 4M, 062AR, 2.16 mg/kg (10 μmol/kg), day 30",1 h
same,AUC,"Multiple dose PK/TK, rat; [3]",528 ng·h/mL and 4.18 µM·h
same,Cmax at 1 day,"Multiple dose PK/TK, rat; [3]",189 ng/mL and 1.5 µM
same,Tmax at 1 day,"Multiple dose PK/TK, rat; [3]",1 h
same,AUC,"Multiple dose PK/TK, rat; [4]",4230 ng·h/mL and 33.5 µM·h
same,Cmax at 1 day,"Multiple dose PK/TK, rat; [4]",769 ng/mL and 6.09 µM
same,Tmax at 1 day,"Multiple dose PK/TK, rat; [4]",1 to 3 h
same,AUC,"Multiple dose PK/TK, rat; [5]",5630 ng·h/mL and 44.6 µM·h
same,Cmax at 30 day,"Multiple dose PK/TK, rat; [5]",1160 ng/mL and 9.21 µM
same,Tmax at 30 day,"Multiple dose PK/TK, rat; [5]",1 h
same,AUC,"Multiple dose PK/TK, rat; [6]",23900 ng·h/mL and 189 µM·h
same,Cmax,"Multiple dose PK/TK, rat; [6]",1670 ng/mL and 13.2 µM
same,Tmax,"Multiple dose PK/TK, rat; [6]",1 to 6 h
same,AUC,"Multiple dose PK/TK, rat; [7]",29300 ng·h/mL and 232 µM·h
same,Cmax,"Multiple dose PK/TK, rat; [7]",2780 ng/mL and 22 µM
same,Tmax,"Multiple dose PK/TK, rat; [7]",1 h
same,AUC/dose,"Multiple dose PK/TK, rat; rat 1F+1M, DMR4, 2.16 mg/kg (10 μmol/kg), day 1",0.323-0.398
same,AUC/dose,"Multiple dose PK/TK, rat; rat 1F+1M, DMR4, 2.16 mg/kg (10 μmol/kg), day 7",0.277-0.396
same,AUC/dose,"Multiple dose PK/TK, rat; rat 4F, 0612AR, 2.16 mg/kg (10 μmol/kg), day 1",0.725 ± 0.068
same,AUC/dose,"Multiple dose PK/TK, rat; rat 4F, 0612AR, 2.16 mg/kg (10 μmol/kg), day 30",0.679 ± 0.134
same,AUC/dose,"Multiple dose PK/TK, rat; rat 4F, 0612AR, 15.1 mg/kg (70 μmol/kg), day 1",0.919 ± 0.071
same,AUC/dose,"Multiple dose PK/TK, rat; rat 4F, 0612AR, 15.1 mg/kg (70 μmol/kg), day 30",1.09 ± 0.13
same,AUC/dose,"Multiple dose PK/TK, rat; rat 4F, 0612AR, 64.9 mg/kg (300 μmol/kg), day 1",1.07 ± 0.10
same,AUC/dose,"Multiple dose PK/TK, rat; rat 4F, 0612AR, 64.9 mg/kg (300 μmol/kg), day 30",1.11 ± 0.14
same,AUC/dose,"Multiple dose PK/TK, rat; rat 4M, 062AR, 2.16 mg/kg (10 μmol/kg), day 30",0.326 ± 0.084
same,AUC/dose,"Multiple dose PK/TK, rat; rat 4M, 0612AR, 2.16 mg/kg (10 μmol/kg), day 1",0.418 ± 0.062
same,AUC/dose,"Multiple dose PK/TK, rat; rat 4M, 0612AR, 15.1 mg/kg (70 μmol/kg), day 1",0.479 ± 0.037
same,AUC/dose,"Multiple dose PK/TK, rat; rat 4M, 0612AR, 15.1 mg/kg (70 μmol/kg), day 30",0.637 ± 0.043
same,AUC/dose,"Multiple dose PK/TK, rat; rat 4M, 0612AR, 64.9 mg/kg (300 μmol/kg), day 1",0.630 ± 0.083
same,AUC/dose,"Multiple dose PK/TK, rat; rat 4M, 0612AR, 64.9 mg/kg (300 μmol/kg), day 30",0.773 ± 0.057
same,AUC,[1]; [8],636 ng·h/mL to 846 ng·h/mL and 2.9 µM·h to 3.9 µM·h
same,Cmax,[1]; [8],224 ng/mL to 296 ng/mL and 1.04 µM to 1.37 µM
same,Tmax,[1]; [8],18 to 60 min
same,AUC,[1]; [9],50.2 ng·h/mL and 0.205 µM·h
same,Cmax,[1]; [9],24.7 ng/mL and 111 nM
same,Tmax,[1]; [9],19 to 58.2 min
same,AUC,[1]; [10],0.872 µM·h
same,Cmax,[1]; [10],138 ng/mL and 583 nM
same,Tmax,[1]; [10],13 to 29 min
same,AUC,[1]; [11],232 ng·h/mL and 1.01 µM·h
same,Cmax,[1]; [11],78.1 ng/mL and 317 nM
same,Tmax,[1]; [11],15 to 121 min
same,AUC,[1]; [12],2510 ng·h/mL and 11.6 µM·h
same,Cmax,[1]; [12],677 ng/mL and 3.13 µM
same,Tmax,[1]; [12],29 to 131 min
same,AUC/dose,[1]; [8],0.212-0.282
same,AUC/dose,[1]; [9],0.148 ± 0.038
same,AUC/dose,[1]; [10],0.270 ± 0.106
same,AUC/dose,[1]; [12],0.251 ± 0.129
same,inhibition of Pgp mediated digoxin transport,Pgp transporter,did not significantly inhibit
same,decrease of digoxin transport,Pgp transporter; 10.8 μg/mL (50 μM),11%
same,half-life,"[2]; rabbit, read-out: elimination half-life",< 300 min
same,AUC,[2]; [13],1750 ng·h/mL and 8.1 µM·h
same,Cmax,[2]; [13],589 ng/mL and 2.72 µM
same,Tmax,[2]; [13],30 to 67.2 min
same,half-life,"[2]; female, sc, rabbit 3F, DMB10, single subcutaneous 2.16 mg/kg (10 μmol/kg), read-out: T½ (converted)",163 ± 70.2 min
same,AUC,[2]; [14],7340 ng·h/mL and 33.9 µM·h
same,Cmax,[2]; [14],1750 ± 56 ng/mL
same,Tmax,[2]; [14],16 to 64.8 min
same,half-life,"[2]; female, sc, rabbit 3F, DMB10, single subcutaneous 6.49 mg/kg (30 μmol/kg), read-out: T½ (converted)",274 ± 81.6 min
